Read-outs that look alike come from different tables or passages of the source.
Columns and labels:
SULT1A1 [1] = molecular target: T1, SULT1A1 (Homo sapiens, UniProt P50225); type: binding
SULT1A1 [2] = molecular target: T1, SULT1A1; settings: SULT1A1 isoform; cited from earlier work
SULT1A1 [3] = molecular target: T1, SULT1A1; test: Presteady state; type: binding
[4] = cited from earlier work
SULT1A1 [5] = molecular target: T1, SULT1A1; test: 35S-PAPS test whether EGCG is a substrate; type: biochemical
SULT2A1 = molecular target: T2, SULT2A1 (Homo sapiens, UniProt Q06520); test: 35S-PAPS test whether EGCG is a substrate; type: biochemical
T2 sequence (Q06520 1-285): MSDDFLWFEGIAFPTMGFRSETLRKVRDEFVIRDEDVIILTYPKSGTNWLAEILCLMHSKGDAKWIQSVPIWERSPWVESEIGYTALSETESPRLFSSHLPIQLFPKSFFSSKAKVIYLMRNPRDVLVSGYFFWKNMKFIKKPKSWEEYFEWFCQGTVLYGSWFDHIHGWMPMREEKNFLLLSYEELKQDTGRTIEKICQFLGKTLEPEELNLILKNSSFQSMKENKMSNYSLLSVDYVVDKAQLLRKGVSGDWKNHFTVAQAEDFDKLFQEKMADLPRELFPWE

SULT1A1 [6] = molecular target: T1, SULT1A1; settings: PAP, cited from earlier work
SULT1A1 [7] = molecular target: T1, SULT1A1; settings: cited from earlier work; for second molecule binds more weakly than the first: unliganded SULT1A1 dimer
SULT1A1 [8] = molecular target: T1, SULT1A1; settings: PAPS 100 μM, NaPO4 50 mM, pH 7.2, 25 °C
[9] = read-out: Kd of acceptor, enzyme form E·(EGCG)2
[10] = EGCG binding to E·(PAP)2, two-step model
[11] = EGCG, enzyme species E·PAP·EGCG

T1 sequence (P50225 whole entry, canonical isoform): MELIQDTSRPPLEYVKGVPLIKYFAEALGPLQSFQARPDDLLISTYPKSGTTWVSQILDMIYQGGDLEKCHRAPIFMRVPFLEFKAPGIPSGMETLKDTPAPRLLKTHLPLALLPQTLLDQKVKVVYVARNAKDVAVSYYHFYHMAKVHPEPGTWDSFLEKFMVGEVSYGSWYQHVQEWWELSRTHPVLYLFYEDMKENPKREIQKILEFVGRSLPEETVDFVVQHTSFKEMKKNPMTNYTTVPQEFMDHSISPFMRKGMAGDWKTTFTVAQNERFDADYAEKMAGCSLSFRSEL

C[C@]12CC[C@@H]3c4ccc(O)cc4CC[C@H]3[C@@H]1CC[C@@H]2O [E2, 17-β-estradiol]
Kd (SULT1A1 [1]): 1000 nM | decrease of acceptor affinity when EGCG binds to E·(PAP)2 (SULT1A1 [1]): not affected | Kd (SULT1A1 [1]; [9]): 1000 nM | Kd (SULT1A1 [1]; read-out: Kd of acceptor, enzyme form E·(PAP)2): 1000 nM | Kd (SULT1A1 [1]; read-out: Kd of acceptor, enzyme form E·(PAP)2·(EGCG)2): 1000 nM

O=C(O[C@@H]1Cc2c(O)cc(O)cc2O[C@@H]1c1cc(O)c(O)c(O)c1)c1cc(O)c(O)c(O)c1 [EGCG, epigallocatechin gallate]
Ki (SULT1A1 [2]): 34 nM | Kiso for the cap of the high-affinity subunit in the E·(EGCG)2 complex (SULT1A1 [3]; 21 × 18): 378 | kfor, binding step (SULT1A1 [3]; [10]): 9.9 (0.6) × 10^6M^−1s^−1 | kfor, isomerization step (cap closure) (SULT1A1 [3]; [10]): 172 s⁻¹ | krev, binding step (SULT1A1 [3]; [10]): 6.5 s⁻¹ | krev, isomerization step (SULT1A1 [3]; [10]): 10 s⁻¹ | koff (SULT1A1 [3]; EGCG, enzyme species E): 6.9 (0.2) s^−1 | kon (SULT1A1 [3]; EGCG, enzyme species E): 9.8 (0.3)^a μM^−1s^−1 | koff (SULT1A1 [3]; EGCG, enzyme species E·PAP): 0.62 (0.03) s^−1 | kon (SULT1A1 [3]; EGCG, enzyme species E·PAP): 13.5 (0.7) μM^−1s^−1 | koff (SULT1A1 [3]; [11]): 13.9 (0.2) s^−1 | kon (SULT1A1 [3]; [11]): 17.1 (0.3) μM^−1s^−1 | Kiso, isomerization equilibrium constant (SULT1A1 [3]; EGCG-bound E·(PAP)2): 17 | Kd (SULT1A1 [3]; read-out: Kd (koff/Kon), EGCG, enzyme species E): 710 nM | Kd (SULT1A1 [3]; read-out: Kd (koff/Kon), EGCG, enzyme species E·PAP): 46 nM | Kd (SULT1A1 [3]; read-out: Kd (koff/Kon), EGCG, enzyme species E·PAP·EGCG): 810 nM | concentration of EGCG in human plasma [4]: ~ 0.4 μ | sulfonation of EGCG (SULT1A1 [5]; SULT1A1 30 μM, EGCG 250 μM, 35S-PAPS 0.30 μM, over 30 min): not detected | turnover of EGCG (SULT1A1 [5]; from lower detection limit ~5 % of PAPS conversion over 30 min): less than 0.16 % min^−1 | affinity of EGCG for E·PAP relative to its affinity for E (SULT1A1 [1]): 15 fold | EGCG binding stoichiometry (SULT1A1 [1]; E·(PAP)2): 1.0 EGCG/subunit | EGCG binding stoichiometry (SULT1A1 [1]; E·PAP, PAP-containing subunit (high-affinity site)): 1.0 per dimer | EGCG binds more tightly to cap-closed (nucleotide-bound) form (SULT1A1 [1]; cap closed vs open): 17 fold | EGCG-binding stoichiometry (SULT1A1 [1]; ligand-free enzyme, [SULT1A1] = 15 Kd): 1.0 per subunit | Kd (SULT1A1 [1]; read-out: Kd EGCG, enzyme form E (ligand-free), allosteric site): 680 nM | Kd (SULT1A1 [1]; read-out: Kd EGCG, enzyme form E·(PAP)2): 39 nM | Kd (SULT1A1 [1]; read-out: Kd EGCG, enzyme form E·EGCGPAP): 810 nM | Kd (SULT1A1 [1]; read-out: Kd EGCG, enzyme form E·PAP): 44 nM | EGCG converted to product (SULT2A1; EGCG 30 μM, 35S-PAPS 30 μM, SULT2A1 0.50 μM dimer, in 2 min): 12% | PAPS converted to sulfonated EGCG (SULT2A1; SULT2A1 30 μM, EGCG 250 μM, 35S-PAPS 0.30 μM, in 1.0 min): Thirty-four

Nc1ncnc2c1ncn2[C@@H]1O[C@H](COP(=O)(O)O)[C@@H](OP(=O)(O)O)[C@H]1O [PAP, 3’, 5’-diphosphoadenosine]
koff for PAP departure from the high affinity site of E·(EGCG)2, fold less than that from E (SULT1A1 [3]): 18 fold | Kd (SULT1A1 [3]; Kd (koff/Kon), PAP, enzyme species E·(EGCG)2): 22 nM | Kd (SULT1A1 [3]; Kd (koff/Kon), PAP, enzyme species E·(EGCG)2·PAP): 880 nM | kon (SULT1A1 [3]; PAP, enzyme species E·(EGCG)2 (high-affinity site)): 1.7e+06 M⁻¹ s⁻¹ | koff (SULT1A1 [3]; PAP, enzyme species E·(EGCG)2 (high-affinity site), saturating EGCG): 0.038 s⁻¹ | koff (SULT1A1 [3]; PAP, enzyme species E·(EGCG)2·PAP): 0.77 s⁻¹ | kon (SULT1A1 [3]; PAP, enzyme species E·(EGCG)2·PAP (low-affinity site)): 880000 M⁻¹ s⁻¹ | koff (SULT1A1 [6]; enzyme species E): 0.70 (0.05) s^−1 | kon (SULT1A1 [6]; enzyme species E): 2.0 (0.1) μM^−1s^−1 | koff (SULT1A1 [6]; enzyme species E·PAP): 29 ([1]) s^−1 | kon (SULT1A1 [6]; enzyme species E·PAP): 0.96 (0.01) μM^−1s^−1 | Kd (SULT1A1 [6]; read-out: Kd (koff/Kon), enzyme species E): 370 nM | Kd (SULT1A1 [7]; read-out: Kd PAP, enzyme form E): 350 nM | second molecule binds more weakly than the first (SULT1A1 [7]): 88 fold | decrease in the affinity of the second nucleotide caused by binding of the first (SULT1A1 [1]; E·(EGCG)2 complex): 33 fold | Kd (SULT1A1 [1]; Kd PAP, enzyme form E·(EGCG)2 (high-affinity site)): 24 nM | Kd (SULT1A1 [1]; Kd PAP, enzyme form E·(EGCG)2PAP (low-affinity site)): 780 nM | Kd (SULT1A1 [1]; Kd PAP, enzyme form E·EGCGPAP): 31000 nM | increase of PAP affinity at saturating EGCG (SULT1A1 [1]; high-affinity site): 15 fold | increase of PAP affinity at saturating EGCG (SULT1A1 [1]; low-affinity site): 40 fold

Nc1ncnc2c1ncn2[C@@H]1O[C@H](COP(=O)(O)OS(=O)(=O)O)[C@@H](OP(=O)(O)O)[C@H]1O [PAPS, 3’-phosphoadenosine 5’-phosphosulfate]
second molecule binds more weakly than the first (SULT1A1 [7]): 88 fold

O=[N+]([O-])c1ccc(O)cc1 [PNP, para-nitrophenol]
kcat (SULT1A1 [8]; PNP as acceptor): 60 (± 1.8) | Ki (SULT1A1 [8]; PNP): 6600 nM | Km (SULT1A1 [8]; read-out: Km (PNP)): 1.4 µM

CC/C(=C(\c1ccc(O)cc1)c1ccc(OCCN(C)C)cc1)c1ccccc1 [TAM, 4-hydroxytamoxifen]
decrease of acceptor affinity when EGCG binds to E·(PAP)2 (SULT1A1 [1]): 23 fold | Kd (SULT1A1 [1]; Kd of acceptor, enzyme form E·(PAP)2): 700 nM | Kd (SULT1A1 [1]; Kd of acceptor, enzyme form E·(PAP)2·(EGCG)2): 16000 nM | Kd (SULT1A1 [1]; read-out: Kd of acceptor, enzyme form E): 650 nM | Kd (SULT1A1 [1]; [9]): 670 nM

— article PMC6379071 (Biochemistry, 2016)
